How the values were obtained:
[1] = system: intracellular S. flexneri 5a M90T in TC7 cells; experiment: microbe, parasite or virus in culture; type: cell-based, Shigella flexneri; conditions: for IC50: Shigella flexneri, TC7, 14 h
Text: Nonproliferating bacterial pathogens frequently inhabit intracellular environments, but establishing relevant infection models for high-throughput testing is challenging. Therefore, we firstly tested ability of the hit compounds to cross the eukaryotic cytoplasmic membrane barrier and inhibit growth of S. flexneri within the cytoplasm of the TC7 human colon adenocarcinoma cell line[59]. To this end, we developed a new, fluorescence-based method that enables real-time monitoring of growth of intracellular Shigella. We used S. flexneri 5a M90T strain producing the AfaE adhesin that enhances bacterial adhesion to epithelial cells and allows synchronization of invasion. The strain was further modified to constitutively express super-folder GFP (sfGFP), which enables monitoring bacterial growth by fluorescence measurement. The epithelial cells were grown to confluence and infected with bacteria at an MOI (multiplicity of infection) of 50. […] Following bacterial adhesion and invasion, the cells were incubated with varying concentrations of the hit compounds and intracellular bacterial growth was tracked by measuring green fluorescence.
The cells were split using trypsin, seeded in 96-well plates for infection, and grown to confluence, corresponding to approximately 40,000 cells per well.
A single colony of S. flexneri was inoculated into TSB supplemented with 50 μg/ml spectinomycin and incubated overnight at 37°C with agitation. The overnight culture was diluted 1:200 in fresh TSB, and the bacteria were grown at 37 °C until the OD600 reached 0.3–0.4, corresponding to approximately 2 × 10^7 CFU/ml. Bacteria were pelleted by centrifugation, washed twice with sterile PBS, and resuspended in infection solution (serum-free DMEM supplemented with 20 mM HEPES, pH 7.4). Just prior to infection, the medium was withdrawn, and the cells were washed twice with sterile PBS. The bacterial inoculum (MOI 50, 2 × 10^7 CFU/ml) was added to all wells except the no-infection control. The plates were incubated at room temperature for 15 min to allow bacterial adhesion, followed by a 1 h incubation at 37 °C with 5% CO2 to facilitate bacterial invasion.
Twofold serial dilutions of the drugs were prepared in infection solution containing 50 μg/ml gentamicin in a 96-well plate. After the invasion period, the bacterial inoculum was removed, and the serial dilutions of the drugs were added to the wells, except for the no-drug control. […] […] The experiments were performed in triplicates on separate days.
Statistical significance of the drug effects was assessed using a one-way ANOVA followed by Dunnett’s test, comparing each treatment to the drug-free control. Statistical significance of the differences in chemical characteristics between the hit compounds and the Prestwick library was assessed using a Mann–Whitney test. Statistical significance was set at P ≤ 0.05. A five-parameter logistic equation was used for asymmetric sigmoidal curve fitting and for EC50 and IC50 determination. The Venn diagram in Fig. 1F was prepared using BioVenn web application. Characteristics of the chemical and physical properties of Prestwick library compounds were obtained from Supplementary Table S1 from reference. Characteristics of the hit compounds not included in the Prestwick library were retrieved from the PubChem database.

[2] = system: non-growing UPEC CFT073; experiment: Dose-dependent killing analysis (CFU spot-plating) of stationary-phase UPEC; type: cell-based, Escherichia coli; conditions: 24 h treatment of stationary phase culture
Description: To differentiate between these scenarios, we used CFU counting by agar plating to assess the bactericidal effect on non-growing bacteria. […] Conversely, if no significant reduction in CFU is observed, the regrowth delay is due to PAE without killing. […] Fluoroquinolones are known to cause PAE after treatment of growing bacterial cultures.
For survival analysis, bacteria were cultivated as described for the dose–response dilution-regrowth assay. Assays with UPEC were conducted at the CBCS screening facility using 96-well plates with a 200 μl sample volume, and compounds were dispensed using the Echo® (Labcyte) system. P. aeruginosa and S. aureus samples were treated according to the protocol used for the dilution-regrowth experiments. Treated samples were serially diluted 10-fold in PBS, and 10 μl drops were spot-plated onto rectangular LB agar plates using either a Beckman NXP robot (for UPEC) or an Integra VIAFLO96 electronic pipette (for P. aeruginosa and S. aureus). The LB agar plates were incubated overnight at 37 °C and scanned. Colonies were counted at the spots of the lowest dilution where individual colonies could be accurately distinguished. Each colony was manually marked on a separate image layer using the GNU Image Manipulation Program, and counted using NIST’s Integrated Colony Enumerator (NICE 1.4) software. The experiments were performed in three biological replicates.

[3] = TC7 cells infected with GFP-expressing S. flexneri, 14 h treatment

Structure (SMILES) | IC50 [1] [nM] | Fluorescence intensity (RFU), Mean, 0.25 x MIC [1, 3] [RFU] | Fluorescence intensity (RFU), Mean, 0.5 x MIC [1, 3] [RFU] | Fluorescence intensity (RFU), Mean, 2 x MIC [1, 3] [RFU] | Fluorescence intensity (RFU), Mean, 4 x MIC [1, 3] [RFU] | Fluorescence intensity (RFU), Mean, 8 x MIC [1, 3] [RFU] | Fluorescence intensity (RFU), Mean, 16 x MIC [1, 3] [RFU] | Fluorescence intensity (RFU), Mean, 32 x MIC [1, 3] [RFU] | Fluorescence intensity (RFU), Mean, MIC [1, 3] [RFU] | Fluorescence intensity (RFU), Mean, 0.0625 x MIC ([1]; TC7 cells infected with GFP-expressing S. flexneri, 14 h treatment, 0.0625 x MIC) [RFU] | Fluorescence intensity (RFU), Mean, 0.125 x MIC ([1]; TC7 cells infected with GFP-expressing S. flexneri, 14 h treatment, 0.125 x MIC) [RFU] | bactericidal activity against non-growing UPEC (CFU counting) [2]
C[C@H]1NCc2cc(-c3ccc4c(=O)c(C(=O)O)cn(C5CC5)c4c3OC(F)F)ccc21 [Garenoxacin] | 31 | 6643.04 | 5273 | 3944.5 | 3336.42 | 2806.31 | 2331.56 | 1840.28 | 3888.86 | – | – | –
CO[C@H]1/C=C/O[C@@]2(C)Oc3c(C)c(O)c4c(O)c(c(/C=N/N5CCN(C)CC5)c(O)c4c3C2=O)NC(=O)/C(C)=C\C=C\[C@H](C)[C@H](O)[C@@H](C)[C@@H](O)[C@@H](C)[C@H](OC(C)=O)[C@@H]1C [Rifampicin] | 3230 | 10619.3 | 4149.04 | 1695.78 | 1392.42 | 1299.69 | 1165.58 | 1042.53 | 2886.31 | 10229.8 | 10528.2 | –
C=C[C@]1(C)C[C@@H](OC(=O)CSC(C)(C)CNC(=O)[C@H](N)C(C)C)[C@]2(C)[C@H](C)CC[C@]3(CCC(=O)[C@H]32)[C@@H](C)[C@@H]1O [Valnemulin] | – | – | – | – | – | – | – | – | – | – | – | not bactericidal
